Where “and” joins values, the source holds several entries; their conditions need not be identical. Equal values may be shown once. Read-outs that look alike come from different tables or passages of the source.
Key:
[1] = molecular target: T1, EcFtsZ (Escherichia coli, UniProt P0A9A6); assay: GTP induced EcFtsZ polymerization by light scattering (PK/PEP GTP regeneration system); assay type: biochemical
T1 construct: made in house; host or cells: E. coli BL21 (DE3)
Description: (§1) Polymerization of FtsZ was determined by light scattering. Light scattering was measured on a Perkin Elmer LS 50 spectrofluorimeter, illuminating with light at a wavelength of 350 nm (excitation) and recording at the same wavelength (emission). Excitation and emission bandwidth were 7 nm and a 4% transmittance filter was used in the emission path. Temperature was kept constant at 30°C.
(§2) Polymerization of FtsZ induced by GTP [with GTP regeneration system PK/PEP (Margalit et al., [2004])] was measured in the absence and the presence of dNAK 4. 12.5 μM FtsZ was pre-incubated in 50 mM HEPES pH 7.3, 50 mM KCl, 10 mM MgCl2, 1% DMSO, and 1 mM PEP. The reaction was started by adding the compound (at the concentration indicated in the figures), 4 units of PK and 1 mM GTP. For each polymerization reaction, a baseline was registered, which corresponds to the light scattering after adding the compound and prior to the induction of polymerization by the addition of GTP and PK.

[2] = molecular target: T2, BsFtsZ (Bacillus subtilis, UniProt P17865); assay: GTP induced BsFtsZ polymerization by light scattering (PK/PEP GTP regeneration system); assay type: biochemical
T2 construct: made in house; host or cells: E. coli DH10B
T2 sequence (P17865 whole entry): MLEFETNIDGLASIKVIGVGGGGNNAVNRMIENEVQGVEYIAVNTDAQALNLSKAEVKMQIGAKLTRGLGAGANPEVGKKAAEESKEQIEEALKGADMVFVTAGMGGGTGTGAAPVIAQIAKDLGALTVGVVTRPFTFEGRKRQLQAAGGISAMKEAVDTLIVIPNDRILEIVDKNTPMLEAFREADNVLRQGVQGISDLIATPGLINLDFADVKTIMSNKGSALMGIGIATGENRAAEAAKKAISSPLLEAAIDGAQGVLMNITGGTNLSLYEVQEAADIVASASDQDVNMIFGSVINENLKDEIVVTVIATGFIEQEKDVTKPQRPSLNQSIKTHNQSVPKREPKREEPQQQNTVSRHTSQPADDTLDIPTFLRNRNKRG
Description: as §1, §2

[3] = molecular target: T1, EcFtsZ; assay: GDP induced EcFtsZ polymerization by light scattering; assay type: biochemical; conditions: 32 μM compound, 2 mM GDP, 12.5 μM protein
Description: as §1
(§3) Polymerization of FtsZ induced by GDP was measured in the absence and the presence of dNAK 4. 12.5 μM FtsZ was pre-incubated in 50 mM HEPES pH 7.3, 50 mM KCl, 10 mM MgCl2, 1% DMSO, and 2 mM GDP. The reaction was started by adding the compound at 32 μM final concentration.

[4] = molecular target: T2, BsFtsZ; assay: GDP induced BsFtsZ polymerization by light scattering; assay type: biochemical; conditions: 32 μM compound, 2 mM GDP, 12.5 μM protein
Description: as §1, §3

[5] = tested on: E. coli K12; assay: Growth curves in liquid Müller-Hinton culture, E. coli; assay type: cell-based, Escherichia coli; conditions: up to 32 μM, 37°C
Description: (§4) Cells were grown in liquid culture medium Müller Hinton (MH) in the presence and absence of the compound. MH medium was inoculated with an overnight culture of each strain and grown until an OD600 of 0.6 was reached. Both cultures were then diluted to OD600 of 0.1 and subsequently divided into several cultures, where the controls (without the compound and with DMSO) and different concentrations of dNAK 4 were tested. Each experimental condition was assayed in 250 μL, six times, in a 96-well ELISA plate. The cultures were grown under agitation at 37°C in a plate spectrofluorimeter with absorbance module model TECAN Infinite M200 PRO and the OD600 was automatically registered every 15 min for 24 h.

[6] = tested on: B. subtilis; assay: Growth curves in liquid Müller-Hinton culture, B. subtilis; assay type: cell-based, Bacillus subtilis; conditions: for effective concentration (total growth arrest): liquid culture
Description: as §4

[7] = tested on: Bacillus subtilis BEM54; assay: Growth inhibition halos on bacterial lawns; assay type: cell-based; parameters: key to growth inhibition halo: −: Absence (-) or presence (+) of growth inhibition halos on different bacterial lawns; Absence (-) or presence (+) of growth inhibition halos on different bacterial lawns; conditions: for growth inhibition halo: 5 µl, 37°C 5-6 h
Description: (§5) TABLE SM1. Effect of dNAK 4 tested directly on the growth of different bacterial […]
(§6) Strains Amount of dNAK 4 in DMSO 30% […]
(§7) Absence (-) or presence (+) of growth inhibition halos on different bacterial lawns.
(§8) The bacterial lawns for each strain listed in this Table were prepared as follow:
(§9) Bacterial cells were grown in Müller-Hinton (MH) media until an OD600 = 0.3. 300 µl of each culture was mixed with 5 ml of MH soft agar and poured into a plate containing 20 ml of MH hard agar. Once cooled, 5 µl of dNAK 4 dissolved in DMSO […]
(§10) the top agar and incubated at 37°C during 5-6 h until growth inhibition halos were […]
(§11) growth inhibition halos in any of the strains tested. As positive control the antibiotic minocycline was used. The experiments were performed by triplicate. The bacterial strains used in these experiments belong to our laboratory collection.

[8] = tested on: Enterobacter aerogenes BEM27; assay: Growth inhibition halos on bacterial lawns; assay type: cell-based; parameters: key to growth inhibition halo: −: Absence (-) or presence (+) of growth inhibition halos on different bacterial lawns; Absence (-) or presence (+) of growth inhibition halos on different bacterial lawns; conditions: for growth inhibition halo: 5 µl, 37°C 5-6 h
Description: as §5, §6, §7, §8, §9, §10, §11

[9] = tested on: Escherichia coli K12; assay: Growth inhibition halos on bacterial lawns; assay type: cell-based; parameters: key to growth inhibition halo: −: Absence (-) or presence (+) of growth inhibition halos on different bacterial lawns; Absence (-) or presence (+) of growth inhibition halos on different bacterial lawns; conditions: for growth inhibition halo: 5 µl, 37°C 5-6 h
Description: as §5, §6, §7, §8, §9, §10, §11

[10] = tested on: Proteus mirabilis BEM87; assay: Growth inhibition halos on bacterial lawns; assay type: cell-based; parameters: key to growth inhibition halo: −: Absence (-) or presence (+) of growth inhibition halos on different bacterial lawns; Absence (-) or presence (+) of growth inhibition halos on different bacterial lawns; conditions: for growth inhibition halo: 5 µl, 37°C 5-6 h
Description: as §5, §6, §7, §8, §9, §10, §11

[11] = tested on: Pseudomonas aeruginosa BEM12; assay: Growth inhibition halos on bacterial lawns; assay type: cell-based; parameters: key to growth inhibition halo: −: Absence (-) or presence (+) of growth inhibition halos on different bacterial lawns; Absence (-) or presence (+) of growth inhibition halos on different bacterial lawns; conditions: for growth inhibition halo: 5 µl, 37°C 5-6 h
Description: as §5, §6, §7, §8, §9, §10, §11

[12] = tested on: Staphylococcus aureus BEM42; assay: Growth inhibition halos on bacterial lawns; assay type: cell-based; parameters: key: −: Absence (-) or presence (+) of growth inhibition halos on different bacterial lawns; Absence (-) or presence (+) of growth inhibition halos on different bacterial lawns; conditions: 5 µl, 37°C 5-6 h
Description: as §5, §6, §7, §8, §9, §10, §11

[13] = tested on: E. coli; assay: Live-cell imaging of cell division in CellASIC ONIX2 microfluidic chambers; assay type: cell-based, Escherichia coli; conditions: LB with 32 μM perfused 8 h, 37°C
Description: In order to evaluate the effect of dNAK 4 at a cellular level, we designed a live-cell imaging approach using the microfluidics platform CellASIC ONIX2 (Merck) coupled to a Lionheart FX automated microscope (BioTek). This setup allowed us to directly monitor the division of E. coli and B. subtilis cells inside microchambers, under a precisely controlled temperature (37°C) and the continuous perfusion of fresh culture medium. The microscope was set up to take one picture of each chamber every 10 min during the whole experiment (20 h), in order to get a continuous view of the division process occurring in a group of cells and its response to the perfusion of dNAK 4. First, cells of each strain were inoculated into separate microchambers, perfusing LB medium for 4 h while monitoring cell growth. Afterwards, LB supplemented with 32 μM dNAK 4 was perfused during the next 8 h. Finally, LB medium without dNAK 4 was perfused during the last 8 h in order to monitor the effect of washing the compound. […] After washing the compound, some B. subtilis cells seemed to partially recover the ability to divide.
2. Live-cell imaging of E. coli and B. subtilis cell division while grown in microfluidic chambers, in the presence or absence of dNAK 4. […]

[14] = tested on: B. subtilis; assay: as above; assay type: cell-based, Bacillus subtilis; conditions: LB with 32 μM perfused 8 h, 37°C
[15] = molecular target: tubulin; parameters: method as in Gutiérrez et al., 2015; conditions: ref Gutiérrez et al., 2015; cited from earlier work
[16] = tested on: normal and cancer cell; parameters: method as in Benites et al., 2016; conditions: ref Benites et al., 2016; cited from earlier work
[17] = calculated from the EcFtsZ polymerization inhibition by the compounds, read-out: IFP (inhibition of EcFtsZ polymerization) expressed as IC50
[18] = at the concentration tested (0.05-2 µg)

T1 sequence (P0A9A6 whole entry): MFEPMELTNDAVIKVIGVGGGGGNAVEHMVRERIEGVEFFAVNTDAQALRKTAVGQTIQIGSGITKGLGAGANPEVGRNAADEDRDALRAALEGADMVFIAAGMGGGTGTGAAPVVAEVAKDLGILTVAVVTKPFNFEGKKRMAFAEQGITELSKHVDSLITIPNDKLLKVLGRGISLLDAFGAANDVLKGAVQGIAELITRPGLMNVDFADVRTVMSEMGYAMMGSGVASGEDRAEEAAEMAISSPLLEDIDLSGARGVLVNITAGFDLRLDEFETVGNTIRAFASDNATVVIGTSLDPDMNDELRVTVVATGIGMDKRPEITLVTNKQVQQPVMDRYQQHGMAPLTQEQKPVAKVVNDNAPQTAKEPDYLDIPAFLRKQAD

O=C(c1ccc[nH]1)c1cc(O)ccc1O [dPAK 4, (2,5-dihydroxy-phenyl)-(1H-pyrrol-2-yl)-methanone]
no inhibitory effect: inhibitory effect over EcFtsZ polymerization ([1]; 2-64 µM, 1% DMSO) | inhibitory effect over BsFtsZ polymerization ([2]; 2-64 µM, 1% DMSO)

O=C(c1ccsc1)c1cc(O)c2ccccc2c1O [dNAK 2]
44 µM: IC50 [1, 17]

O=C(c1cccs1)c1cc(O)c2ccccc2c1O [dNAK 1]
100 µM: IC50 [1, 17]

O=C(c1ccco1)c1cc(O)c2ccccc2c1O [dNAK 3]
39 µM: IC50 [1, 17]

O=C(c1ccc[nH]1)c1cc(O)c2ccccc2c1O [dNAK 4, (1,4-dihydroxy-naphthalen-2-yl)-(1H-pyrrol-2-yl)-methanone]
0.3 to 0.5 µg: amount giving growth inhibition in plate assays ([10]; bacterial lawn, P. mirabilis) | amount giving growth inhibition in plate assays ([11]; bacterial lawn, P. aeruginosa)
0.1 µg: lowest amount giving growth inhibition in plate assays ([7]; bacterial lawn, B. subtilis)
8 µg/mL: effective concentration (total growth arrest) ([6]; conversion of 32 μM)
+: growth inhibition halo ([7]; 0.1 µg in DMSO 30%) | growth inhibition halo ([7]; 0.3 µg in DMSO 30%) | growth inhibition halo ([7]; 0.5 µg in DMSO 30%) | growth inhibition halo ([7]; 1 µg in DMSO 30%) | growth inhibition halo ([7]; 2 µg in DMSO 30%) | growth inhibition halo ([10]; 0.5 µg in DMSO 30%) | growth inhibition halo ([10]; 1 µg in DMSO 30%) | growth inhibition halo ([10]; 2 µg in DMSO 30%) | growth inhibition halo ([11]; 0.3 µg in DMSO 30%) | growth inhibition halo ([11]; 0.5 µg in DMSO 30%) | growth inhibition halo ([11]; 1 µg in DMSO 30%) | growth inhibition halo ([11]; 2 µg in DMSO 30%) | growth inhibition halo ([12]; 0.1 µg in DMSO 30%) | growth inhibition halo ([12]; 0.3 µg in DMSO 30%) | growth inhibition halo ([12]; 0.5 µg in DMSO 30%) | growth inhibition halo ([12]; 1 µg in DMSO 30%) | growth inhibition halo ([12]; 2 µg in DMSO 30%)
−: growth inhibition halo ([7]; 0.05 µg in DMSO 30%) | growth inhibition halo ([8]; 0.05 µg in DMSO 30%) | growth inhibition halo ([8]; 0.1 µg in DMSO 30%) | growth inhibition halo ([8]; 0.3 µg in DMSO 30%) | growth inhibition halo ([8]; 0.5 µg in DMSO 30%) | growth inhibition halo ([8]; 1 µg in DMSO 30%) | growth inhibition halo ([8]; 2 µg in DMSO 30%) | growth inhibition halo ([9]; 0.05 µg in DMSO 30%) | growth inhibition halo ([9]; 0.1 µg in DMSO 30%) | growth inhibition halo ([9]; 0.3 µg in DMSO 30%) | growth inhibition halo ([9]; 0.5 µg in DMSO 30%) | growth inhibition halo ([9]; 1 µg in DMSO 30%) | growth inhibition halo ([9]; 2 µg in DMSO 30%) | growth inhibition halo ([10]; 0.05 µg in DMSO 30%) | growth inhibition halo ([10]; 0.1 µg in DMSO 30%) | growth inhibition halo ([10]; 0.3 µg in DMSO 30%) | growth inhibition halo ([11]; 0.05 µg in DMSO 30%) | growth inhibition halo ([11]; 0.1 µg in DMSO 30%) | growth inhibition halo ([12]; 0.05 µg in DMSO 30%)
1.02 ± 0.23 µM: Kd [15]
no inhibitory effect: effect on E. coli K12 growth in liquid culture [5] | inhibitory effect in plate assays [8, 18] | inhibitory effect in plate assays [9, 18]
complete growth arrest: effect on growth of B. subtilis cells [14]
9.13 ± 0.66 µM: IC50 [2]
2.3 ± 0.1 µM: IC50 ([1]; from slope of light scattering increment after depolymerization vs concentration, PK/PEP GTP regeneration system, read-out: IFP expressed as IC50 (converted))
4.6 µM and 4.4 µM: IC50 ([1]; from steady-state slope of light scattering increment vs concentration, PK/PEP GTP regeneration system, read-out: IFP expressed as IC50 (converted))
32 µM: effective concentration (total growth arrest) [6]
induced: polymerization of EcFtsZ with GDP [3] | polymerization of BsFtsZ with GDP [4]
no growth: B. subtilis growth in liquid culture ([6]; 32 μM, during 16 h, Müller-Hinton, 37°C)
no effect: effect on growth of E. coli cells [13] | effect on normal and cancer cell proliferation [16]

COc1cc(C(=O)c2cc(O)c3ccccc3c2O)cc(OC)c1OC [dNAK 5]
81.5 µM: IC50 [1, 17]

Reference: paper PMC6582257, “Inhibition of Escherichia coli and Bacillus subtilis FtsZ Polymerization and Bacillus subtilis Growth by Dihydroxynaphtyl Aryl Ketones” (Frontiers in Microbiology, 2019)
